Consider 6 compounds from patent US9977309B2, “Electrophoretic fluid” (Merck Patent GmbH, priority 2013, dated 2018).

Molecules are shown by their SMILES.

This data set can be described thus: Saturation solubility of dyes in decane. It is filed as physicochemical.
Take `CCCCCCCCCCCCCCCCCCN(CCCCCCCCCCCCCCCCCC)c1cc(NC(C)=O)c(/N=N/c2c(C#N)cc([N+](=O)[O-])cc2C#N)cc1OC` [Dye 1]: the “Saturation wt % in decane” value worked out at 0.003 wt %.

`CCCCCCCCN(CCCCCCCC)c1ccc(/N=N/c2snc(C)c2C#N)c(NC(C)=O)c1` [Dye 4]: the “Saturation wt % in decane” value worked out at 0.19 wt %.

Turning to `CCCCCCCCCCCCCCc1ccc(/N=N/c2c(C)c(C#N)c(=O)n(CC(CC)CCCC)c2O)cc1` (stereo not drawn) [Dye 5], the “Saturation wt % in decane” value is given as 1.03 wt %.

`CCCCCCCCCCCCCCc1ccc(/N=N/c2c(C)cc(=O)n(CC(CC)CCCC)c2O)cc1` (stereo not drawn) [Dye 6]: the “Saturation wt % in decane” value is on record as 3.72 wt %.

Regarding `CCCCc1ccc(/N=N/c2ccc(N(CCCC)CCCC)cc2)cc1` [Dye 7], the “Saturation wt % in decane” value is on record as 9.95 wt %.

Turning to `CCCCCCCCN(CCCCCCCC)c1ccc(/N=N/c2ccc([N+](=O)[O-])cc2)c(C)c1` [Dye 8], the “Saturation wt % in decane” value is on record as 10.50 wt %.
